pKi: −log10 of the molar value.
What was measured:
Settings in all cases: average of at least two experiments
[1] = biological target: 5HT4 receptor (Homo sapiens (Human), UniProt Q13639); experiment: Secondary radioligand binding assay, 5HT4; set-up: key: “—” indicates that a binding interaction was not detected
Experimental: 1. Secondary Radioligand Binding Assays The detailed experimental protocols for the radioligand and functional receptor assays are available on the NIMH PDSP website at http://pdsp.med.unc.edu/UNC-CH %20Protocol %20Book.pdf. Assay Buffer: Standard Binding Buffer (50 mM Tris-HCl, 10 mM MgCl2, 1 mM EDTA, pH 7.4) Membrane Fraction Source: Transiently or stably transfected cell lines (e.g., HEK293, COS, CHO, NIH3T3) Protocol adapted from Roth et al. (1986), J. Pharmacol. Exp. Ther., 238(2): 480-485; and Roth et al. (1994), J. Pharmacol. Exp. Ther., 268(3): 1403-1410. […] A similar stock of a reference compound (positive control) is also prepared. […] Radioligand is diluted to five times the assay concentration (see Table 18) in Standard Binding Buffer. Typically, the assay concentration of radioligand is a value between one half the KD and the KD of a particular radioligand at its target. 50 μl aliquots of radioligand are dispensed into the wells of a 96-well plate containing 100 μl of Standard Binding Buffer. Then, duplicate 50 μl aliquots of the test and reference compound dilutions are added. Finally, crude membrane fractions of cells expressing recombinant target (prepared from 10 cm plates by harvesting PBS-rinsed monolayers, resuspending and lysing in chilled, hypotonic 50 mM Tris-HCl, pH 7.4, centrifuging at 20,000×g, decanting the supernatant and storing at −80° C.; typically, one 10 cm plate provides sufficient material for 24 wells), are resuspended in 3 ml of chilled Standard Binding Buffer and homogenized by several passages through a 26 gauge needle, then 50 μl are dispensed into each well. […] Four rapid 500 μl washes are performed with chilled Standard Binding Buffer to reduce non-specific binding. Filters are placed in 6 ml scintillation tubes and allowed to dry overnight. The next day, 4 ml of EcoScint scintillation cocktail (National Diagnostics) are added to each tube. The tubes are capped, labeled, and counted by liquid scintillation counting. For higher throughput assays, bound radioactivity is harvested onto 0.3% polyethyleneimine-treated, 96-well filter mats using a 96-well Filtermate harvester. The filter mats are dried, then scintillant is melted onto the filters and the radioactivity retained on the filters is counted in a Microbeta scintillation counter. Raw data (dpm) representing total radioligand binding (i.e. specific+non-specific binding) are plotted as a function of the logarithm of the molar concentration of the competitor (i.e. test or reference compound).

[2] = biological target: dopamine D1 receptor (Homo sapiens (Human), UniProt P21728); experiment: Secondary radioligand binding assay, D1; set-up: key to Ki D1: “—” indicates that a binding interaction was not detected
Chain of dopamine D1 receptor (P21728 whole entry): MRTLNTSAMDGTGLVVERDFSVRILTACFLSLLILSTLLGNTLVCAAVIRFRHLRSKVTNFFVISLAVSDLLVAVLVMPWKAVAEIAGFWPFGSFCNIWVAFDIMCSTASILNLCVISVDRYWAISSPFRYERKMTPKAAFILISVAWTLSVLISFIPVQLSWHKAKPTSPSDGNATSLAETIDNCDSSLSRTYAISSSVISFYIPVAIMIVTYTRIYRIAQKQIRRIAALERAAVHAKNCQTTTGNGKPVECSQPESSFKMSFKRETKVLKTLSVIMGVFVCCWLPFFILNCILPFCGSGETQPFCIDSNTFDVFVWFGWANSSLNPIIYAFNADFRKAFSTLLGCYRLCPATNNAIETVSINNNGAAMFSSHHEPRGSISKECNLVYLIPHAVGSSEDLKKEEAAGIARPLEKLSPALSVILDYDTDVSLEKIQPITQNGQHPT
Experimental: (§1) 1. Secondary Radioligand Binding Assays
(§2) The detailed experimental protocols for the radioligand and functional receptor assays are available on the NIMH PDSP website at http://pdsp.med.unc.edu/UNC-CH %20Protocol %20Book.pdf.
(§3) Radioligand is diluted to five times the assay concentration (see Table 18) in Standard Binding Buffer. Typically, the assay concentration of radioligand is a value between one half the KD and the KD of a particular radioligand at its target. 50 μl aliquots of radioligand are dispensed into the wells of a 96-well plate containing 100 μl of Standard Binding Buffer. Then, duplicate 50 μl aliquots of the test and reference compound dilutions are added.
(§4) The 250 μl reactions are incubated at room temperature and shielded from light (to prevent photolysis of light-sensitive ligands) for 1.5 hours, then harvested by rapid filtration onto Whatman GF/B glass fiber filters pre-soaked with 0.3% polyethyleneimine using a 96-well Brandel harverster. Four rapid 500 μl washes are performed with chilled Standard Binding Buffer to reduce non-specific binding. Filters are placed in 6 ml scintillation tubes and allowed to dry overnight. The next day, 4 ml of EcoScint scintillation cocktail (National Diagnostics) are added to each tube. The tubes are capped, labeled, and counted by liquid scintillation counting. […] The filter mats are dried, then scintillant is melted onto the filters and the radioactivity retained on the filters is counted in a Microbeta scintillation counter.
(§5) Raw data (dpm) representing total radioligand binding (i.e. specific+non-specific binding) are plotted as a function of the logarithm of the molar concentration of the competitor (i.e. test or reference compound).
(§6) B. Dopamine Receptors: D1, D2, D3, D4, D5 Assay Buffers: Dopamine Binding Buffer (50 mM NaCl, 50 mM HEPES-HCl, 5 mM MgCl2, 0.5 mM EDTA, pH 7.4) Membrane Fraction Source: Transiently or stably transfected cell lines (e.g. HEK293, COS, CHO, NIH3T3)
(§7) The method is carried out in the manner described for the serotonin receptor assay above. Eleven dilutions (5× assay concentration) of the test and reference (see Table 19) compounds are prepared in Dopamine Binding Buffer by serial dilution, as previously described. Radioligand is diluted to five times the assay concentration (see Table 20) in Dopamine Binding Buffer.

[3] = biological target: 5HT3 receptor (Homo sapiens (Human), UniProt P46098); experiment: Secondary radioligand binding assay, 5HT3; set-up: key: “—” indicates that a binding interaction was not detected;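 also: radioligand competition binding on membranes from transfected cell lines, 1.5 h incubation at room temperature, filter-retained radioactivity measured by liquid scintillation counting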
Chain of 5HT3 receptor (P46098 24-478): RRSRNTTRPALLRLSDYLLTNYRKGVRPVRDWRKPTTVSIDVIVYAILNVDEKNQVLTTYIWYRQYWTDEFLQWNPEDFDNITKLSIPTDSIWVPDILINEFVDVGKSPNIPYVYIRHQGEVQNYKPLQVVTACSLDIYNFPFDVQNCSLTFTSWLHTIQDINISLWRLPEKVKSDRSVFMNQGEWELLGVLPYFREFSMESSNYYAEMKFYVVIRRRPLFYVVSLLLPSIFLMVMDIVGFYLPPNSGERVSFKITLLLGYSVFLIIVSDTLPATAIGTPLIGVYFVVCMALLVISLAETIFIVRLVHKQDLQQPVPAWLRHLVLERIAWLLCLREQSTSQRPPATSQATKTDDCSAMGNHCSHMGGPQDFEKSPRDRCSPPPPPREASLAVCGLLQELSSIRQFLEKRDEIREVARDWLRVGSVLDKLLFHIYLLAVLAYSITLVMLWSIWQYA

[4] = biological target: 5HT1e receptor (Homo sapiens (Human), UniProt P28566); experiment: Secondary radioligand binding assay, 5HT1e; set-up: key: “—” indicates that a binding interaction was not detected;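 also: competition binding against a radioligand on membranes from transfected cell lines, 1.5 h at room temperature, bound radioactivity counted by liquid scintillation after filtration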
Chain of 5HT1e receptor (P28566 whole entry): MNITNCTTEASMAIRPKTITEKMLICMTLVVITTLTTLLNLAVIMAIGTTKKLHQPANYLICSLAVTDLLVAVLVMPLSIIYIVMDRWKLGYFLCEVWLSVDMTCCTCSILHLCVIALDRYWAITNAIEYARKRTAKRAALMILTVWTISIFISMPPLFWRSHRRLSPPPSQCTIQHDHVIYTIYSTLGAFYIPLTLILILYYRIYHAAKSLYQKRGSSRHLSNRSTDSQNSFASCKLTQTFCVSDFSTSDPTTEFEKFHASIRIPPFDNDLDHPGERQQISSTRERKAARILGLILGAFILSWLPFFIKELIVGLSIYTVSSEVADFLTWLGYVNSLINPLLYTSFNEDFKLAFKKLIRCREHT

[5] = biological target: 5HT1d receptor (Homo sapiens (Human), UniProt P28221); experiment: Secondary radioligand binding assay, 5HT1d; set-up: key to Ki 5HT1d: “—” indicates that a binding interaction was not detected;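 also: competition binding against a radioligand on membranes from transfected cell lines, 1.5 h at room temperature, filter-retained radioactivity counted by liquid scintillation, total binding plotted versus log competitor concentration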
Chain of 5HT1d receptor (P28221 whole entry): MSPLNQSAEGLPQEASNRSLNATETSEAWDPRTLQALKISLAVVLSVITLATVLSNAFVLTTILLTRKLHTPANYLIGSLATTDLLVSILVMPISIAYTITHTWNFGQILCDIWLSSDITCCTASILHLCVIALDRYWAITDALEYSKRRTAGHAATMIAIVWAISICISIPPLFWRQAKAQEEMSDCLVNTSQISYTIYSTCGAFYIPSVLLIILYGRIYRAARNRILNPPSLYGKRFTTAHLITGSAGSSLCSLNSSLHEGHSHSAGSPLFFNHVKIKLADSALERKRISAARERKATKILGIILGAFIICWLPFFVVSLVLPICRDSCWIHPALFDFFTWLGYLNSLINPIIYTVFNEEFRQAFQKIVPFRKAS

[6] = biological target: dopamine D2 receptor (Homo sapiens (Human), UniProt P14416); experiment: Secondary radioligand binding assay, D2; set-up: key to Ki D2: “—” indicates that a binding interaction was not detected
Chain of dopamine D2 receptor (P14416 whole entry, species assumed): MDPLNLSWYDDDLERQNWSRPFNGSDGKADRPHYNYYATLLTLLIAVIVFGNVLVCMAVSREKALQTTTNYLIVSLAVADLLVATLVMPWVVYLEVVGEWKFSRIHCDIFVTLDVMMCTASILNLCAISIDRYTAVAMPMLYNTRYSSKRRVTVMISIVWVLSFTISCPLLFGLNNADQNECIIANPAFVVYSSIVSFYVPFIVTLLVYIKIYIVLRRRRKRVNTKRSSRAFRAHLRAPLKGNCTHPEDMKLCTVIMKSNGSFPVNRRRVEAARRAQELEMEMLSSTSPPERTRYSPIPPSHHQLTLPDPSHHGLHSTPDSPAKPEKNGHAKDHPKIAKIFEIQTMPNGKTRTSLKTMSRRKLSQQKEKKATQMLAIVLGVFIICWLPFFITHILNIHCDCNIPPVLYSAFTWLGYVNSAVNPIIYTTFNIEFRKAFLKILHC
Experimental: as §1, §2, §3, §4, §5, §6, §7

Chain of 5HT4 receptor (Q13639 whole entry): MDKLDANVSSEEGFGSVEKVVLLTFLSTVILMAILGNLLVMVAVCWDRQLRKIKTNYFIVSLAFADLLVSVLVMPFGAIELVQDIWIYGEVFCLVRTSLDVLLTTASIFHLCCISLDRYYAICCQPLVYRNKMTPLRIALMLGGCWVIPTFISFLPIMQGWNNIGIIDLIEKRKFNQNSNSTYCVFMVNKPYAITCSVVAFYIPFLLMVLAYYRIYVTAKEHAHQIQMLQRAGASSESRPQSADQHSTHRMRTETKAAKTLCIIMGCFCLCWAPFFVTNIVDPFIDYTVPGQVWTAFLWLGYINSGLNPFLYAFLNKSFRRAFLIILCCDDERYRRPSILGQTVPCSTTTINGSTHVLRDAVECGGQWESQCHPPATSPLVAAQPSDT

| SMILES | Ki 5HT4 [1] | Ki D1 [2] | Ki 5HT3 [3] | Ki 5HT1e [4] | Ki 5HT1d [5] | Ki D2 [6] | pKi [2] | pKi [5] | pKi [6] |
| --- | --- | --- | --- | --- | --- | --- | --- | --- | --- |
| O=C(CN1CCO[C@@H](COc2ccccn2)C1)N1CCc2ccccc21 [Compound 14r, (R)-1-(Indolin-1-yl)-2-(2-((pyridin-2-yloxy)methyl)morpholino)ethanone] | — | — | — | — | — | — |  |  |  |
| c1ccc(OC[C@H]2CN(CCN3CCc4ccccc43)CCO2)nc1 [Compound 15r, (R)-4-(2-(Indolin-1-yl)ethyl)-2-((pyridin-2-yloxy)methyl)morpholine] | — | — | — | — | — | — |  |  |  |
| Cc1ccnc(OC[C@H]2CN(CC(=O)N3CCc4ccccc43)CCO2)c1 [Compound 16r] | — |  | — | — | — | — | < 5.00 |  |  |
| Cc1ccnc(OC[C@H]2CN(CCN3CCc4ccccc43)CCO2)c1 [Compound 17r, (R)-4-(2-(Indolin-1-yl)ethyl)-2-(((4-methylpyridin-2-yl)oxy)methyl)morpholine] | — |  | — | — | — | — | < 5.00 |  |  |
| O=C(CN1CCO[C@H](COc2ccccc2)C1)N1CCc2ccccc21 [Compound 18s, (S)-1-(Indolin-1-yl)-2-(2-(phenoxymethyl)morpholino)ethanone] | — | — | — | — | — | — |  |  |  |
| c1ccc(OC[C@@H]2CN(CCN3CCc4ccccc43)CCO2)cc1 [Compound 19s, (S)-4-(2-(Indolin-1-yl)ethyl)-2-(phenoxymethyl)morpholine] | — |  | — | — |  |  | 5.87 | 6.23 | 6.47 |
| O=C(CN1CCO[C@@H](COc2cccnc2)C1)N1CCc2ccccc21 [Compound 20r, (R)-1-(Indolin-1-yl)-2-(2-((pyridin-3-yloxy)methyl)morpholino)ethanone] | — | — | — | — | — | — |  |  |  |
| O=C(CN1CCO[C@H](COc2cccnc2)C1)N1CCc2ccccc21 [Compound 20s, (S)-1-(Indolin-1-yl)-2-(2-((pyridin-3-yloxy)methyl)morpholino)ethanone] | — | — | — | — | — | — |  |  |  |
| c1cncc(OC[C@H]2CN(CCN3CCc4ccccc43)CCO2)c1 [Compound 21r, (R)-4-(2-(Indolin-1-yl)ethyl)-2-((pyridin-3-yloxy)methyl)morpholine] | — |  | — | — | — | — | < 5.00 |  |  |
| c1cncc(OC[C@@H]2CN(CCN3CCc4ccccc43)CCO2)c1 [Compound 21s, (S)-4-(2-(Indolin-1-yl)ethyl)-2-((pyridin-3-yloxy)methyl)morpholine] | — |  | — | — | — |  | < 5.00 |  | < 5.00 |
| O=C(CN1CCO[C@@H](COc2cccc(Cl)c2)C1)N1CCc2ccccc21 [Compound 22r, (R)-2-(2-((3-chlorophenoxy)methyl)morpholino)-1-(indolin-1-yl)ethanone] | — | — | — | — | — | — |  |  |  |
| O=C(CN1CCO[C@H](COc2cccc(Cl)c2)C1)N1CCc2ccccc21 [Compound 22s, (S)-2-(2-((3-Chlorophenoxy)methyl)morpholino)-1-(indolin-1-yl)ethanone] | — | — | — | — | — | — |  |  |  |
| Clc1cccc(OC[C@H]2CN(CCN3CCc4ccccc43)CCO2)c1 [Compound 23r, (R)-2-((3-Chlorophenoxy)methyl)-4-(2-(indolin-1-yl)ethyl)morpholine] | — | — | — | — | — |  |  |  | < 5.00 |
| Clc1cccc(OC[C@@H]2CN(CCN3CCc4ccccc43)CCO2)c1 [Compound 23s, (S)-2-((3-chlorophenoxy)methyl)-4-(2-(indolin-1-yl)ethyl)morpholine] | — |  | — | — |  |  | 5.69 | 5.95 | 5.72 |
| COc1cccc(OC[C@@H]2CN(CC(=O)N3CCc4ccccc43)CCO2)c1 [Compound 24s, (S)-1-(Indolin-1-yl)-2-(2-((3-methoxyphenoxy)methyl)morpholino)ethanone] | — | — | — | — | — | — |  |  |  |
